Test results from patent US10357493B2, “Metalloenzyme inhibitor compounds” (Selenity Therapeutics (Bermuda), Ltd., priority 2017, dated 2019).

Experiments:
[1] = target: HDAC1 (Homo sapiens (Human), UniProt Q13547); test: HDAC1 enzymatic assay; type: biochemical; conditions: read-out: Human HDAC1 IC50
Experimental: (§1) All enzymatic reactions were conducted in duplicate at room temperature for 17 hours in a 50 μl mixture containing HDAC assay buffer (50 mM Tris-HCl, pH 7.4, 137 mM NaCl, 2.7 mM KCl, 0.05% Tween 20, 5 μg BSA), an HDAC substrate, an HDAC enzyme, and a test compound. Compound dilution was prepared ten-fold higher than the final concentration of the compounds with 10% DMSO in HDAC assay buffer and 5 μl of the dilution was added to a 50 μl reaction so that the final concentration of DMSO is 1% in all of reactions. After enzymatic reactions, 50 μl of HDAC Developer was added to each well and the plate was incubated at room temperature for an additional 20 minutes. Fluorescence intensity was measured at an excitation of 360 nm and an emission of 460 nm using a Tecan Infinite M1000 or Biotek Synergy microplate reader.
(§2) The fluorescent intensity data were analyzed using the computer software, Graphpad Prism. In the absence of the compound, the fluorescent intensity (Ft) in each data set was defined as 100% activity. In the absence of HDAC, the fluorescent intensity (Fb) in each data set was defined as 0% activity. The percent activity in the presence of each compound was calculated according to the following equation: % activity=(F−Fb)/(Ft−Fb), where F=the fluorescent intensity in the presence of the compound.
(§3) The values of % activity versus a series of compound concentrations were then plotted using non-linear regression analysis of Sigmoidal dose-response curve generated with the equation Y=B+(T−B)/1+10((Log EC50−X)×Hill Slope), where Y=percent activity, B=minimum percent activity, T=maximum percent activity, X=logarithm of compound and Hill Slope=slope factor or Hill coefficient. The IC50 value was determined by the concentration causing a half-maximal percent activity.
(§4) HDAC1 enzymatic assays contained 0.5 ng HDAC1 and 10 uM of HDAC substrate. HDAC2 enzymatic assays contained 0.5 ng HDAC2 and 10 uM of HDAC substrate. HDAC3 enzymatic assays contained 0.4 ng HDAC3/NCOR2 and 10 uM of HDAC substrate. HDAC4 enzymatic assays contained 0.02 ng HDAC4 and 2 uM of HDAC substrate. HDAC5 enzymatic assays contained 0.5 ng HDAC5 and 2 uM of HDAC substrate. HDAC6 enzymatic assays contained 2 ng HDAC6 and 10 uM of HDAC substrate. HDAC7 enzymatic assays contained 0.05 ng HDAC7 and 2 uM of HDAC substrate. HDAC8 enzymatic assays contained 5 ng HDAC8 and 2 uM of HDAC substrate. HDAC9 enzymatic assays contained 1 ng HDAC9 and 2 uM of HDAC substrate. HDAC10 enzymatic assays contained 75 ng HDAC10 and 10 uM of HDAC substrate. HDAC11 enzymatic assays contained 5 ng HDAC11 and 2 uM of HDAC substrate.

[2] = target: HDAC6 (Homo sapiens (Human), UniProt Q9UBN7); test: HDAC6 enzymatic assay; type: biochemical; conditions: read-out: Human HDAC6 IC50
Experimental: as §1, §2, §3, §4

HDAC6, sequence (Q9UBN7 whole entry): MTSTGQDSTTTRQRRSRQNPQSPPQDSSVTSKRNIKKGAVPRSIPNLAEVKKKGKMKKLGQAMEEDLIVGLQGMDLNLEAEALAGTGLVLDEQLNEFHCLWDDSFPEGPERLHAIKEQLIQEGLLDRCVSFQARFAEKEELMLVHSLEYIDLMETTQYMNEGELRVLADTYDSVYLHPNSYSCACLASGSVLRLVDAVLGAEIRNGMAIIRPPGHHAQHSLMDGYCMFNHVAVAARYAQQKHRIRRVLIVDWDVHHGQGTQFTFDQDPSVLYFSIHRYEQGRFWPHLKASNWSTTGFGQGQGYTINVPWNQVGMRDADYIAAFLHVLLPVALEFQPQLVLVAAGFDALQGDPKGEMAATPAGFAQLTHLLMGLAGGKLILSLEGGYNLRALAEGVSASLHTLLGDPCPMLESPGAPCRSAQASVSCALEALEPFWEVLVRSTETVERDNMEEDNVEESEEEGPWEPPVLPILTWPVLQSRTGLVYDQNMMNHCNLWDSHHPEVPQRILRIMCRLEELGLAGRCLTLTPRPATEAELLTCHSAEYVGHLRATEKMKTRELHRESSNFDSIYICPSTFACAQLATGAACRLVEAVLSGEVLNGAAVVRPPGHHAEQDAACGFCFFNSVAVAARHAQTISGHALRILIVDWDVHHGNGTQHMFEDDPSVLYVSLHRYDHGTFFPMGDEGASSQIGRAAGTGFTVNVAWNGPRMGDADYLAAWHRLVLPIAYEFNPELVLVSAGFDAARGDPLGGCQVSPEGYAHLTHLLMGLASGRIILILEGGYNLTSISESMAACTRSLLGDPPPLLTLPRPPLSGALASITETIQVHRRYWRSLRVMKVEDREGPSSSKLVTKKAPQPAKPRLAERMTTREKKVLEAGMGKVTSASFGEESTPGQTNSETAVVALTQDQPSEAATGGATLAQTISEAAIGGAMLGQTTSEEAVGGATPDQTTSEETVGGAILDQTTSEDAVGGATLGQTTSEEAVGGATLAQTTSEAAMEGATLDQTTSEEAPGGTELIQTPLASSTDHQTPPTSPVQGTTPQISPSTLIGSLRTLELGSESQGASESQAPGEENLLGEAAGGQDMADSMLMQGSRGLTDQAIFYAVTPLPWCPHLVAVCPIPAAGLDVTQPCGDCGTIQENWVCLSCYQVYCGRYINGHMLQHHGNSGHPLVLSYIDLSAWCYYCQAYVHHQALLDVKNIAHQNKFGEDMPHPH
HDAC1, sequence (Q13547 whole entry): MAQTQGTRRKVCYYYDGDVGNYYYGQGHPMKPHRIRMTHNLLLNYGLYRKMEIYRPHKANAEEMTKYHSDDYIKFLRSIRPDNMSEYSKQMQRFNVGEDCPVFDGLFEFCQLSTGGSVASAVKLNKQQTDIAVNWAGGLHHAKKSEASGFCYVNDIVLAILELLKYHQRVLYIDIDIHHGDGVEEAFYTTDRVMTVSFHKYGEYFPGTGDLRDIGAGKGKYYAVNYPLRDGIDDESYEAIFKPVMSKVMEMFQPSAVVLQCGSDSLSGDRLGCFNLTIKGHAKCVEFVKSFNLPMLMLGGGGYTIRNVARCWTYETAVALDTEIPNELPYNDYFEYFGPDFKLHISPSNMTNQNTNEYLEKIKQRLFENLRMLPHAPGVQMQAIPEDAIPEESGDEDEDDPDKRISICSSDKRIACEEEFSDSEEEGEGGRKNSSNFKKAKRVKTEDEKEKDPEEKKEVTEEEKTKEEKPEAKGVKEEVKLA

Structure (SMILES) | IC50 [1] [µM] | IC50 [2] [µM]
CCS(=O)(=O)N(CC(Nc1ncc(-c2nnc(C(F)F)o2)cn1)c1ccc(F)cc1)CC(F)(F)F (single isomer, unassigned) [164(−), N-(2-((5-(5-(difluoromethyl)-1,3,4-oxadiazol-2-yl)pyrimidin-2-yl)amino)-2-(4-fluorophenyl)ethyl)-N-(2,2,2-trifluoroethyl)ethanesulfonamide] | > 30 | 0.23
O=S(=O)(C1CC1)N(CC(Nc1ncc(-c2nnc(C(F)F)o2)cn1)c1ccc(F)cc1)CC(F)(F)F (single isomer, unassigned) [165(+), N-(2-((5-(5-(difluoromethyl)-1,3,4-oxadiazol-2-yl)pyrimidin-2-yl)amino)-2-(4-fluorophenyl)ethyl)-N-(2,2,2-trifluoroethyl)cyclopropanesulfonamide] | > 30 | 0.11
O=S(=O)(C1CC1)N(CC(Nc1ncc(-c2nnc(C(F)F)o2)cn1)c1ccc(F)cc1)CC(F)(F)F (single isomer, unassigned) [165(−), N-(2-((5-(5-(difluoromethyl)-1,3,4-oxadiazol-2-yl)pyrimidin-2-yl)amino)-2-(4-fluorophenyl)ethyl)-N-(2,2,2-trifluoroethyl)cyclopropanesulfonamide] | > 30 | 0.16
CC(=O)N(C)CC(Nc1ncc(-c2nnc(C(F)F)o2)cn1)c1ccc(F)cc1 (single isomer, unassigned) [166(+), N-(2-((5-(5-(difluoromethyl)-1,3,4-oxadiazol-2-yl)pyrimidin-2-yl)amino)-2-(4-fluorophenyl)ethyl)-N-methylacetamide] | > 30 | 0.093
CC(=O)N(C)CC(Nc1ncc(-c2nnc(C(F)F)o2)cn1)c1ccc(F)cc1 (single isomer, unassigned) [166(−), N-(2-((5-(5-(difluoromethyl)-1,3,4-oxadiazol-2-yl)pyrimidin-2-yl)amino)-2-(4-fluorophenyl)ethyl)-N-methylacetamide] | > 30 | 0.36
CC(=O)N(CC(Nc1ncc(-c2nnc(C(F)F)o2)cn1)c1ccc(F)cc1)CC(F)(F)F (single isomer, unassigned) [167(+), N-(2-((5-(5-(difluoromethyl)-1,3,4-oxadiazol-2-yl)pyrimidin-2-yl)amino)-2-(4-fluorophenyl)ethyl)-N-(2,2,2-trifluoroethyl)acetamide] | > 30 | 0.11
CC(=O)N(CC(Nc1ncc(-c2nnc(C(F)F)o2)cn1)c1ccc(F)cc1)CC(F)(F)F (single isomer, unassigned) [167(−), N-(2-((5-(5-(difluoromethyl)-1,3,4-oxadiazol-2-yl)pyrimidin-2-yl)amino)-2-(4-fluorophenyl)ethyl)-N-(2,2,2-trifluoroethyl)acetamide] | > 30 | 0.69
O=C(NCC(Nc1ncc(-c2nnc(C(F)F)o2)cn1)c1ccc(F)cc1)C1CC1 (single isomer, unassigned) [168(−), N-(2-((5-(5-(difluoromethyl)-1,3,4-oxadiazol-2-yl)pyrimidin-2-yl)amino)-2-(4-fluorophenyl)ethyl)cyclopropanecarboxamide] | > 30 | 0.75
CN(CC(Nc1ncc(-c2nnc(C(F)F)o2)cn1)c1ccc(F)cc1)C(=O)C1CC1 (single isomer, unassigned) [169(+), N-(2-((5-(5-(difluoromethyl)-1,3,4-oxadiazol-2-yl)pyrimidin-2-yl)amino)-2-(4-fluorophenyl)ethyl)-N-methylcyclopropanecarboxamide] | > 30 | 0.077
CN(CC(Nc1ncc(-c2nnc(C(F)F)o2)cn1)c1ccc(F)cc1)C(=O)C1CC1 (single isomer, unassigned) [169(−), N-(2-((5-(5-(difluoromethyl)-1,3,4-oxadiazol-2-yl)pyrimidin-2-yl)amino)-2-(4-fluorophenyl)ethyl)-N-methylcyclopropanecarboxamide] | > 30 | 1.1
O=C(C1CC1)N(CC(Nc1ncc(-c2nnc(C(F)F)o2)cn1)c1ccc(F)cc1)CC(F)(F)F (single isomer, unassigned) [170(+), N-(2-((5-(5-(difluoromethyl)-1,3,4-oxadiazol-2-yl)pyrimidin-2-yl)amino)-2-(4-fluorophenyl)ethyl)-N-(2,2,2-trifluoroethyl)cyclopropanecarboxamide] | > 30 | 0.16
O=C(C1CC1)N(CC(Nc1ncc(-c2nnc(C(F)F)o2)cn1)c1ccc(F)cc1)CC(F)(F)F (single isomer, unassigned) [170(−), N-(2-((5-(5-(difluoromethyl)-1,3,4-oxadiazol-2-yl)pyrimidin-2-yl)amino)-2-(4-fluorophenyl)ethyl)-N-(2,2,2-trifluoroethyl)cyclopropanecarboxamide] | > 30 | 1
CS(=O)(=O)NCC(Nc1ncc(-c2nnc(C(F)F)o2)cn1)c1ccc(F)c(F)c1 (single isomer, unassigned) [171(−), N-(2-((5-(5-(difluoromethyl)-1,3,4-oxadiazol-2-yl)pyrimidin-2-yl)amino)-2-(3,4-difluorophenyl)ethyl)methanesulfonamide] | > 30 | 0.59
CS(=O)(=O)N(CC(Nc1ncc(-c2nnc(C(F)F)o2)cn1)c1ccc(F)c(F)c1)CC(F)(F)F (single isomer, unassigned) [172(A), N-(2-((5-(5-(difluoromethyl)-1,3,4-oxadiazol-2-yl)pyrimidin-2-yl)amino)-2-(3,4-difluorophenyl)ethyl)-N-(2,2,2-trifluoroethyl)methanesulfonamide] | > 30 | 0.32
CS(=O)(=O)N(CC(Nc1ncc(-c2nnc(C(F)F)o2)cn1)c1ccc(F)c(F)c1)CC(F)(F)F (single isomer, unassigned) [172(B), N-(2-((5-(5-(difluoromethyl)-1,3,4-oxadiazol-2-yl)pyrimidin-2-yl)amino)-2-(3,4-difluorophenyl)ethyl)-N-(2,2,2-trifluoroethyl)methanesulfonamide] | > 30 | 0.086
CS(=O)(=O)NCC(Nc1ncc(-c2nnc(C(F)F)o2)cn1)c1ccc(Cl)cc1 (single isomer, unassigned) [173(−), N-(2-(4-chlorophenyl)-2-((5-(5-(difluoromethyl)-1,3,4-oxadiazol-2-yl)pyrimidin-2-yl)amino)ethyl)methanesulfonamide] | > 30 | 0.49
CS(=O)(=O)N(CC(Nc1ncc(-c2nnc(C(F)F)o2)cn1)c1ccc(Cl)cc1)CC(F)(F)F (single isomer, unassigned) [174(+), N-(2-(4-chlorophenyl)-2-((5-(5-(difluoromethyl)-1,3,4-oxadiazol-2-yl)pyrimidin-2-yl)amino)ethyl)-N-(2,2,2-trifluoroethyl)methanesulfonamide] | > 30 | 0.17
CS(=O)(=O)N(CC(Nc1ncc(-c2nnc(C(F)F)o2)cn1)c1ccc(Cl)cc1)CC(F)(F)F (single isomer, unassigned) [174(−), N-(2-(4-chlorophenyl)-2-((5-(5-(difluoromethyl)-1,3,4-oxadiazol-2-yl)pyrimidin-2-yl)amino)ethyl)-N-(2,2,2-trifluoroethyl)methanesulfonamide] | > 30 | 0.11
Fc1ccc(C(Cn2cnc(C(F)(F)F)c2)Nc2ncc(-c3nnc(C(F)F)o3)cn2)cc1 (single isomer, unassigned) [175(+), 5-(5-(difluoromethyl)-1,3,4-oxadiazol-2-yl)-N-(1-(4-fluorophenyl)-2-(4-(trifluoromethyl)-1H-imidazol-1-yl)ethyl)pyrimidin-2-amine] | > 30 | 0.16
Fc1ccc(C(Cn2cnc(C(F)(F)F)c2)Nc2ncc(-c3nnc(C(F)F)o3)cn2)cc1 (single isomer, unassigned) [175(−), 5-(5-(difluoromethyl)-1,3,4-oxadiazol-2-yl)-N-(1-(4-fluorophenyl)-2-(4-(trifluoromethyl)-1H-imidazol-1-yl)ethyl)pyrimidin-2-amine] | > 30 | 1.5
